{
  "source": "patent US10245255B2",
  "about": "“Compositions and methods for the treatment of obesity and related disorders” (THE REGENTS OF THE UNIVERSITY OF MICHIGAN, priority 2011, dated 2019)",
  "key": {"[1]": {"experiment": "Ob/ob mice: liver weight, triglycerides, histology", "format": "in vivo", "conditions": "100 mg/kg for 14 weeks"}, "[2]": {"experiment": "Diet-induced obese mice: tissue protein, phosphorylation and gene expression (liver, WAT, BAT)", "format": "in vivo, C57BL/6 mice", "experimental": "(§1) Wild type male C57BL/6 mice were fed a high fat diet consisting of 45% of calories from fat (D12451 Research Diets Inc., New Brunswick, N.J.) starting at 8 weeks of age for 12-24 weeks, while normal diet C57BL/6 controls were maintained on normal chow diet consisting of 4.5% fat (5002 Lab Diet, Philadelphia, Pa.). Diets containing ω-3 fatty acids were fed as previously described 24. Rosiglitazone treatment was administered for three weeks by addition of the compound to the diet in mice that had been on HFD for 16 weeks. Each mouse consumed on average 3.5 mg/kg rosiglitazone per day. Amlexanox was administered by daily oral gavage. […] Animals were housed in a specific pathogen-free facility with a 12-hour light/12-hour dark cycle and given free access to food and water. All animal use was in compliance with the Institute of Laboratory Animal Research Guide for the Care and Use of Laboratory Animals and approved by the University Committee on Use and Care of Animals at the University of Michigan and UCSD.\nTissues were homogenized in lysis buffer (50 mM Tris, pH 7.5, 5 mM EDTA, 250 mM sucrose, 1% NP40, 2 mM DTT, 1 mM sodium vanadate, 100 mM NaF, 10 mM Na4P2O7, and freshly added protease inhibitor tablet), then incubated for one hour at 4° C. Crude lysates were then centrifuged at 14,000×g for 15 minutes twice and the protein concentration was determined using BioRad Protein Assay Reagent. Samples were diluted in sodium dodecyl sulfate (SDS) sample buffer. Bound proteins were resolved by SDS-polyacrylamide gel electrophoresis and transferred to nitrocellulose membranes (Bio-Rad, Hercules, Calif.). Individual proteins were detected with the specific antibodies and visualised on film using horseradish peroxidase-conjugated secondary antibodies (Bio-Rad, Hercules, Calif.) and Western Lightning Enhanced Chemiluminescence (Perkin Elmer Life Sciences, Waltham, Mass.).\n(§2) Tissues were fixed in formalin for 3 days. Histology was performed by the University of Michigan Cancer Center Research Histology Laboratory.\nMouse tissues were isolated, rinsed in Phosphate Buffered Saline (PBS), frozen in liquid nitrogen and stored at −80° C. until extraction. Total RNA was extracted from Liver, WAT and BAT tissues as well as differentiated 3T3-L1 cells using the RNeasy Lipid Tissue Kit (Qiagen, Valencia, Calif.) according to the manufacturer's instructions with the inclusion of a DNase digestion step. Total RNA was extracted from BMDM and SVF cells using the RNeasy Kit (Qiagen, Valencia, Calif.) with a DNase step. The Superscript First-Strand Synthesis System for RTPCR (Invitrogen, Grand Island, N.Y.) was used with random primers for reverse transcription. Realtime PCR amplification of the cDNA was performed on samples in triplicate with Power SYBR Green PCR Master Mix (Applied Biosystems, Carlsbad, Calif.) using the Applied Biosystems 7900HT Fast Realtime PCR System. […] Data was analyzed using the 2-ΔΔCT method, and statistical significance was determined using the unpaired heterocedastic Student's t-test with one averaged sample value per mouse."}, "[3]": {"experiment": "Diet-induced obese mice: liver weight, triglyceride, glycogen, histology", "format": "in vivo, C57BL/6 mice", "experimental": "as §1\nLiver lipids were isolated as previously described (Norris et. Al. 2003) and the triglyceride levels were measured by Triglyceride Reagent kit.\nDetermination of glycogen in liver was performed as follows. Briefly, liver tissue was digested in a 30% potassium hydroxide solution, and then glycogen was precipitated using ethanol. After three washes to remove any traces of glucose, glycogen was digested by addition of amyloglucosidase. Released glucose was quantified using a colorimetric kit (Wako, Richmond, Va.).\nas §2"}, "[4]": {"experiment": "Diet-induced obese mice: energy expenditure (metabolic cages) and core body temperature", "format": "in vivo, C57BL/6 mice", "conditions": "25 mg/kg", "experimental": "The University of Michigan Animal Metabolic Phenotyping Core measured oxygen consumption (VO2), carbon dioxide production (VCO2) and spontaneous motor activity during 3 consecutive days using the Comprehensive Laboratory Monitoring System (CLAMS, Columbus Instruments), an integrated open-circuit calorimeter equipped with an optical beam activity monitoring system. The respiratory quotient was calculated by dividing carbon dioxide production by oxygen consumption. The mean values for light and dark cycles were used to analyze statistical significance.\nRectal temperature measurements were performed using a YSI 4600 Precision thermometer (YSI, Inc., Yellow Springs, Ohio)."}, "[5]": {"experiment": "Ob/ob mice: blood chemistry (glucose, adiponectin, serum cytokines)", "format": "in vivo", "experimental": "as §1\n(§3) Blood glucose was measured by OneTouch Ultra Glucometer. Plasma from mice fasted for six hours was isolated from whole blood collected into heparinized tubes. Insulin concentrations were measured by insulin ELISA kit (Crystal Chem Inc., Downers Grove, Ill.). Leptin and adiponectin levels were measured by ELISA kits purchased from Cayman Chem Inc. (Ann Arbor, Mich.). Cytokine levels were quantified utilizing luminex technology in a multianalyte panel plate purchased from Millipore (Billerica, Mass.). Additionally, TNFα levels were measured using ELISA kits purchased from R&D Systems (Minneapolis, Minn.)."}, "[6]": {"experiment": "Diet-induced obesity treatment group: blood chemistry", "format": "in vivo, C57BL/6 mice", "experimental": "as §1, §3"}, "[7]": {"experiment": "Diet-induced obesity treatment group: insulin tolerance test", "format": "in vivo, C57BL/6 mice", "experimental": "as §1\nFor glucose tolerance tests, after a six-hour fast mice were orally gavaged with glucose at a dose of 1.5 g/kg (C57BL/6 mice) or 1.2 g/kg (ob/ob mice). […] Blood glucose was measured at basal, 15, 30, 45, 60, 90, 120 and 180 minutes from tail blood using the One Touch Ultra glucometer (Lifescan, Milpitas, Calif.)."}, "[8]": {"conditions": "diet induced obese mice, 25 mg/kg for 8 weeks"}},
  "note": "Entries after “also recorded” stand apart in the source; their conditions may differ.",
  "data": [
    {"smiles": "CC(C)c1ccc2oc3nc(N)c(C(=O)O)cc3c(=O)c2c1", "note": "[amlexanox, 2-amino-7-isopropyl-5-oxo-5H-chromeno[2,3-b]pyridine-3-carboxylic acid]", "values": [
      {"measurement": "large lipid droplets in liver (H & E staining)", "setting": "[1]", "result": "largely disseminated"},
      {"measurement": "reduction in liver weight", "setting": "[1]", "result": "greater than 20%"},
      {"measurement": "reduction of triglyceride contents in livers", "setting": "[1]", "result": "more than 50%"},
      {"measurement": "expression of brown fat-specific marker Cidea in BAT", "setting": "[2]; HFD, 25 mg/kg daily", "result": "increased"},
      {"measurement": "UCP1 protein levels in brown fat", "setting": "[2]; HFD, treatment group", "result": "increased"},
      {"measurement": "mitochondrial genes in brown fat", "setting": "[2]; compared to control", "result": "no increases"},
      {"measurement": "signaling through the mTORC1 pathway in BAT", "setting": "[2]; compared to controls", "result": "Reduced signaling"},
      {"measurement": "TBK1 phosphorylation in adipose tissue", "setting": "[2]; diet induced obese mice", "result": "prevented"},
      {"measurement": "high fat diet induction of IKKε protein in adipose tissue", "setting": "[2]; diet induced obese mice", "result": "blocked"},
      {"measurement": "high fat diet-induced increase of S6K phosphorylation in adipose tissue", "setting": "[2]; diet induced obese mice", "result": "largely attenuated"},
      {"measurement": "UCP-1 protein levels in adipose tissue", "setting": "[2]; diet induced obese mice vs HFD vehicle", "result": "increased"},
      {"measurement": "brown fat appearance", "setting": "[2]; high fat diet", "result": "reverted to its normal appearance"},
      {"measurement": "hormone sensitive lipase phosphorylation in adipose tissue", "setting": "[2]; high fat diet", "result": "prevented the reduction"},
      {"measurement": "BAT lipids when amlexanox treatment was stopped", "setting": "[2]; high fat diet, withdrawal", "result": "lipids again accumulated"},
      {"measurement": "genetic measures of hepatosteatosis", "setting": "[2]; mice with diet induced obesity", "result": "similarly reduced"},
      {"measurement": "IKKε protein levels in BAT", "setting": "[2]; mouse, in vivo", "result": "reduced"},
      {"measurement": "TBK1 protein levels in BAT", "setting": "[2]; mouse, in vivo", "result": "reduced"},
      {"measurement": "reductions in hepatic lipids after mice were taken off drug", "setting": "[3]; continued on high fat diet, stained tissue sections", "result": "reversed"},
      {"measurement": "large lipid droplets in liver (H & E staining)", "setting": "[3]; [8]", "result": "largely disseminated"},
      {"measurement": "reduction in liver weight", "setting": "[3]; [8]", "result": "greater than 20%"},
      {"measurement": "hepatic glycogen levels", "setting": "[3]; diet induced obese mice, 25 mg/kg for 8 weeks, vs control HFD mice", "result": "lower"},
      {"measurement": "reduction of triglyceride content in liver", "setting": "[3]; diet induced obese mice, 25 mg/kg for 8 weeks, vs vehicle", "result": "more than 50%"},
      {"measurement": "body temperature (rectal)", "setting": "[4]; compared to HFD vehicle treated mice", "result": "approximate one-degree increase"},
      {"measurement": "exhaled carbon dioxide", "setting": "[4]; diet induced obese mice, four-week treatment", "result": "significantly increased"},
      {"measurement": "oxygen consumption (VO2)", "setting": "[4]; diet induced obese mice, four-week treatment, vs vehicle", "result": "significantly increased; also recorded: significantly higher"},
      {"measurement": "circulating (serum) level of MCP-1", "setting": "[5]; 100 mg/kg", "result": "not significantly affected"},
      {"measurement": "circulating (serum) level of Rantes", "setting": "[5]; 100 mg/kg", "result": "not significantly affected"},
      {"measurement": "circulating adiponectin levels", "setting": "[5]; 100 mg/kg", "result": "increase"},
      {"measurement": "reduction in fasting glucose levels", "setting": "[5]; 100 mg/kg", "result": 25, "unit": "%"},
      {"measurement": "serum level of IL-1α", "setting": "[5]; 100 mg/kg", "result": "markedly reduced"},
      {"measurement": "serum level of MIP1α", "setting": "[5]; 100 mg/kg", "result": "markedly reduced"},
      {"measurement": "serum level of TNFα", "setting": "[5]; 100 mg/kg", "result": "markedly reduced"},
      {"measurement": "serum level of IL-10", "setting": "[5]; compared to controls", "result": "elevated"},
      {"measurement": "fasting serum insulin", "setting": "[6]; 25 mg/kg for 8 weeks after established diet-induced obesity", "result": "reversed elevations"},
      {"measurement": "decrease in fasting levels of leptin", "setting": "[6]; 25 mg/kg, HFD, treatment phase", "result": 80, "unit": "%"},
      {"measurement": "serum cholesterol", "setting": "[6]; 25 mg/kg, HFD, treatment phase", "result": "unchanged"},
      {"measurement": "serum free fatty acids", "setting": "[6]; 25 mg/kg, HFD, treatment phase", "result": "unchanged"},
      {"measurement": "serum triglycerides", "setting": "[6]; 25 mg/kg, HFD, treatment phase", "result": "unchanged"},
      {"measurement": "insulin sensitivity (insulin tolerance test)", "setting": "[7]; 25 mg/kg, established diet-induced obesity", "result": "restoration in insulin responsiveness to normal diet levels"},
      {"measurement": "insulin sensitivity in normal diet-fed mice", "setting": "[7]; normal diet", "result": "did not affect"}
    ]}
  ]
}
